# Values quoted from earlier work, collected in patent US20140128375A1, “B[…] AS CGRP RECEPTOR ANTAGONISTS” (priority 2006, published 2014).
# System: CGRP
# Details: marmoset, electrical stimulation of the trigeminal ganglion
compound,measurement,value
NCCCC[C@H](NC(=O)[C@@H](Cc1cc(Br)c(O)c(Br)c1)NC(=O)N1CCC(N2Cc3ccccc3NC2=O)CC1)C(=O)N1CCN(c2ccncc2)CC1 [BIBN4096BS],effect on increase in facial blood flow,could be blocked
